Measurements: patent US20040132049A1, “Method for the detection of apoptosis” (priority 2002, published 2004)

Columns and labels:
[1] = system: nucleolin and PARP-1 proteins in U937 cells; test: Immunoblot of nucleolin and PARP-1 in S-100 and nuclear extracts after CPT-induced apoptosis; type: cell-based, Human
Description: Cells were harvested and washed twice with cold PBS. S-100 and nuclear extracts were prepared (Coqueret and Gascan, 2000). Briefly, 100 μl of ice-cold extraction buffer B (10 mM 4-(2-Hydroxyethyl)piperazine-1-ethanesulfonic acid (HEPES; pH 7.9), 1.5 mM MgCl2, 10 mM KCl, 1 mM phenylmethylsulfonyl fluoride (PMSF), 1 μg/ml leupeptin, 1 μg/ml aprotinin) were added to the cells. After three cycles of freeze-thaw, S-100 extracts were recovered as supernatant following centrifugation at 12,000 rpm for 1 minute, and pellets containing nuclei were resuspended in 40 μl of buffer C (20 mM HEPES, pH 7.9, 1.5 mM MgCl2, 420 mM KCl, 0.2 mM EDTA, 25% glycerol, 1 mM PMSF, 1 μg/ml leupeptin, 1 μg/ml aprotinin). Following 30 minutes incubation at 4° C., insoluble material was removed by centrifugation at 12,000 rpm for 5 minutes, and nuclear extracts were collected as supernatant. Extracts were either used immediately or frozen and stored at −80° C.
The concentration of extracted proteins was determined using the BioRad DC protein assay kit (BioRad; Hercules, Calif.). Samples (10 μg) were incubated in sodium dodecyl sulfate (SDS)-loading buffer (100 mM Tris-HCl, pH 6.8, 200 mM dithiothreitol (DTT), 4% SDS, 0.2% bromophenol blue, 20% glycerol) at 65° C. for 15 minutes, and separated on 10% (for nucleolin detection) or 8% (for PARP-1) polyacrylamide-SDS gels, followed by electroblotting to polyvinylidene difluoride membranes (PVDF, BioRad). After blocking non-specific binding sites for 1 hour in 5% nonfat dried milk in PBST (0.1% polyoxyethylene(20) sorbitan monolaurate (Tween® 20) in PBS), the membrane was incubated for 1 hour at room temperature or overnight at 4° C. with primary antibody (1:1000 anti-nucleolin or anti-PARP-1; Anti-nucleolin antibody (mouse monoclonal IgG1) and anti-PARP-1 antibody (mouse monoclonal IgG2A) were from Santa Cruz Biotechnology; Santa Cruz; Calif.). After 3 washes in PBST, the membrane was incubated with horseradish peroxidase-conjugated goat anti-mouse antibody (Santa Cruz Biotechnology) for 45 minutes at room temperature and then washed 3 times in PBST. Bound antibodies were detected using enhanced chemiluminescence detection. Equal gel loading and transfer of proteins were confirmed by staining membranes with India ink (Bates et al., 1999).
To determine if the phenomena observed in Example 2 were specific to UV-irradiated cells or a general feature of apoptosis, protein changes in U937 cells treated with 10 μM CPT (prepared as in Example 1) for 24 hours were also examined. The U937 cells were cultured as in Example 2. Apoptosis-induced changes in nucleolin and PARP-1 were examined as in Example 2.

[2] = system: nucleolin and PARP-1 proteins in U937 cells; test: Immunoblot of nucleolin and PARP-1 in S-100 and nuclear extracts after UV-induced apoptosis; type: cell-based, Human; settings: UV-irradiated U937 cells, 30 minutes pre-incubation with 1 mM 3-ABA
Description: The concentration of extracted proteins was determined using the BioRad DC protein assay kit (BioRad; Hercules, Calif.). […] After 3 washes in PBST, the membrane was incubated with horseradish peroxidase-conjugated goat anti-mouse antibody (Santa Cruz Biotechnology) for 45 minutes at room temperature and then washed 3 times in PBST. Bound antibodies were detected using enhanced chemiluminescence detection. Equal gel loading and transfer of proteins were confirmed by staining membranes with India ink (Bates et al., 1999).
Some cells received 30 minutes pre-incubation with 1 mM 3-ABA before UV-irradiation.

[3] = system: nucleolin in medium of U937 cells; test: Immunoblot of nucleolin shed into serum-free culture medium; type: cell-based, Human
Description: The possibility that nucleolin was shed into the cell culture medium was examined by probing serum-free medium from cultures of U937 cells irradiated with UV light in the absence or presence of 3-ABA. Cell culture and treatment conditions were as in Example 2. To prepare protein from the cell culture medium, the medium was replaced with serum-free medium, and cells were irradiated. Cells were then centrifuged at 1,200 rpm for 10 minutes. Culture medium was collected from untreated and treated cells at 2 hours and 4 hours following irradiation. The medium was filtered (syringe filters with PVDF membranes, Whatman; Clifton, N.J.), and protein present in the medium was concentrated using Centricon (YM-30, Millipore, Bedford, Mass.) according the manufacturer's instructions.

[4] = system: U937 cells; test: MTT viable cell assay after UV irradiation; type: cell-based, Human; settings: 1 mM 3-ABA pre-treatment, MTT 48 hours after irradiation
Description: Because PARP-1 is involved in both repair of DNA damage and induction of apoptosis, 3-ABA can both increase apoptotic cell death (by preventing repair) or decrease it (by preventing PARP-1 cleavage), depending on conditions. Therefore, the ability of 3-ABA to inhibit cell death under the conditions used here was examined. Cells were subjected to UV irradiation with or without 1 mM 3-ABA pre-treatment. Untreated and irradiated cells were plated at 2×10^4/ml in a 96-well plate. Viable cells were assessed using the MTT (3-[4,5-dimethylthiazol-2-yl]-2,5-diphenyl tetrazolium bromide) assay (Norgaard et al., 2001) 48 hours after irradiation.

[5] = system: nucleolin in U937 cells; test: Immunofluorescence staining of nucleolin in cells; type: cell-based, Human
Description: Cells were collected by centrifugation, washed twice with PBS, and placed on glass slides using a cytospinner. Samples were fixed in 4% paraformaldehyde in PBS for 15 minutes at room temperature and then permeabilized with 0.2% Triton X-100 in PBS for 10 minutes. After two washes with PBS, nonspecific antibody binding sites were blocked by 1 hour incubation at room temperature with 5% normal goat serum in PBS. After 3 washes with PBS, slides were incubated in primary antibody (1:100 anti-mAb IgG1; Santa Cruz Biotechnology) for 1 hour at room temperature then washed 3 times in PBS. Samples were incubated with Alexa-488-labeled secondary antibodies (diluted 1:500 in blocking buffer) for 1 hour at room temperature. Slides were washed 3 times in PBS, were observed using an Olympus BX60F fluorescence microscope and photographed using an Olympus DPIO camera.
Untreated, UV-irradiated, and 10 μM CPT-treated U937 cells were examined using the above staining method. Culture and treatment conditions were as in Example 2. […] Moreover, there was a dramatic redistribution of nucleolin in the apoptotic nuclei. In untreated cells, nucleolin was predominantly located in the intensely stained nucleoli (FIG. 1, panels A and D), whereas 24 hours after UV irradiation, nucleolin was distributed throughout the nucleolplasm in a speckled pattern (FIG. 1, panels B and E). […]

[6] = system: U937 cells; test: DNA fragmentation (DNA ladder) assay of apoptosis; type: cell-based, Human; settings: 10 μM CPT
Description: Camptothecin (CPT; Sigma Co.; St. Louis, Mo.), an anti-neoplastic topo-isomerase I (Top I) inhibitor, was dissolved in 0.5% (v/v) dimethyl sulfoxide (DMSO)/PBS as stock solutions (stored at −20° C.) and further diluted with water before use. Human U937 cells (myeloid leukemia cell line, from American Type Culture Collection (ATCC); Manassas, Va.) were grown in suspension in RPMI 1640 medium supplemented with 10% heat-inactivated (20 minutes at 65° C.) fetal bovine serum (FBS), 100 U/ml penicillin, 100 μg/ml streptomycin at 37° C. with 5% CO2. For treatment with CPT, exponentially growing U937 cells were treated with 10 μM CPT for 24 hours. For UV irradiation, cells were plated at 5×10^5 cells/ml in dishes (60 mm diameter). The cells were irradiated with UV-light by placing the plate (without a lid) directly in a Stratagene (La Jolla) UV Stratalinker and irradiating for 30 seconds at 254 nm. Some cells received 30 minutes pre-incubation with 1 mM 3-aminobenzamide (ABA); Sigma). Cells were then replaced in the incubator at 37° C. for various times. Apoptosis was observed using a DNA fragmentation assay (Facompre et al., 2001). In this assay, apoptosis is indicated by the appearance of a DNA “ladder”, which is produced by endonuclease cleavage of chromosomal DNA into nucleosomal fragments.

[7] = molecular target: plasma membrane nucleolin (Homo sapiens, UniProt P19338); parameters: key: 1: Indicates a good plasma membrane nucleolin-binding GRO.; 2: Indicates a nucleolin control (non-plasma membrane nucleolin binding); settings: superscript on GRO name in Table 2; cited from earlier work
[8] = U937 cells, 10 μM CPT for 24 hours

Chain of plasma membrane nucleolin (P19338 whole entry): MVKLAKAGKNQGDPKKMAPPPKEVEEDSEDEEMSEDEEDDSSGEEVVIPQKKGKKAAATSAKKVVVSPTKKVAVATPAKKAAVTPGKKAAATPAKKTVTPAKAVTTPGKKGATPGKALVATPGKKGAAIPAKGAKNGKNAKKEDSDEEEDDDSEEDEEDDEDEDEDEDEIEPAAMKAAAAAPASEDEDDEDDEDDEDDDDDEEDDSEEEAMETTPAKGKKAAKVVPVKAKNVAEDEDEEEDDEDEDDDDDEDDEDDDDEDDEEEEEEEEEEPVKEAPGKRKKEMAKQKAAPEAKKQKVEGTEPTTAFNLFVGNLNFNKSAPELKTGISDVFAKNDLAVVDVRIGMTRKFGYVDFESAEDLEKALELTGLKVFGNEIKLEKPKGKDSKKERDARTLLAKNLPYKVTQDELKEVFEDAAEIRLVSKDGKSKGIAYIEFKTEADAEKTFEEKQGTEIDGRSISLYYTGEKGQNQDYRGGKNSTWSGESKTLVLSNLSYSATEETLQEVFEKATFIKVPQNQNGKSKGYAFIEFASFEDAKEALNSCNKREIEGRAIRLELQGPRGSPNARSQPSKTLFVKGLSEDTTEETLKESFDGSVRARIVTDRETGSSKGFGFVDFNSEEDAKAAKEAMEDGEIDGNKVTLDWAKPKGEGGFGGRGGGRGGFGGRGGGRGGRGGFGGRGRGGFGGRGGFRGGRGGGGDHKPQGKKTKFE

Molecule	plasma membrane nucleolin binding designation [7]	also measured
NC(=O)c1cccc(N)c1 [3-ABA, 3-aminobenzamide]	–	protection from apoptosis-induced changes in nucleolin and PARP-1 ([1]; CPT-treated U937 cells, pre-incubation with 3-ABA): only a small degree of protection; PARP-1 cleavage [2]: abrogation of PARP-1 cleavage; disappearance of S-100 nucleolin [2]: drastically inhibited the disappearance of S-100 nucleolin; loss of nuclear nucleolin [2]: prevented the loss of nuclear nucleolin; nucleolin in medium of untreated (non-irradiated) cells ([3]; U937 cells without UV irradiation, with 3-ABA treatment): almost no nucleolin was detected; appearance of full-length nucleolin band in medium after UV irradiation ([3]; UV-irradiated U937 cells, serum-free medium, with 3-ABA): inhibited; reduction of UV-induced cell death [4]: only to a small degree
CC[C@@]1(O)C(=O)OCc2c1cc1n(c2=O)Cc2cc3ccccc3nc2-1 [CPT, Camptothecin]	–	nuclear nucleolin [1, 8]: reduced the amount of nuclear nucleolin; nucleolin in S-100 fraction [1, 8]: caused a disappearance of nucleolin from the S-100 fraction; PARP-1 cleavage ([1]; U937 cells, 10 μM CPT, after 4 hours): only partial cleavage; distribution of nucleolin in nuclei ([5]; U937 cells treated with CPT for 24 hours): the majority of nuclei exhibited a distinct pattern of staining; overall intensity of nuclear nucleolin staining ([5]; U937 cells, 10 μM CPT): decreased slightly; induction of apoptosis (DNA ladder) [6]: induced apoptosis; time at which DNA ladder clearly observed [6]: 24 h
CRO: SEQ ID NO:18 tttcctcctc ctccttctcc tcctcctcc; nucleolin control (DNA TTTCCTCCTCCTCCTTCTCCTCCTCCTCC; listed as DNA, chemistry not given here)	CRO^2	–
GRO15B: SEQ ID NO:8 ttgggggggg tgggt (TTGGGGGGGGTGGGT; listed as DNA, chemistry not given here)	GRO15B^2	–
GRO26B: SEQ ID NO:10 ggtggtggtg gttgtggtgg tggtgg	GRO26B^1	–
GRO G: SEQ ID NO:25 ggttggtgtg gttgg	GRO G^1	–
GRO H: SEQ ID NO:26 ggggttttgg gg (DNA GGGGTTTTGGGG; listed as DNA, chemistry not given here)	GRO H^1	–
GRO I: SEQ ID NO:27 gggttttggg (DNA GGGTTTTGGG; listed as DNA, chemistry not given here)	GRO I^1	–
GRO J: SEQ ID NO:28 ggggttttgg ggttttgggg ttttgggg (DNA GGGGTTTTGGGGTTTTGGGGTTTTGGGG; listed as DNA, chemistry not given here)	GRO J^1	–
GRO K: SEQ ID NO:29 ttggggttgg ggttggggtt gggg (DNA TTGGGGTTGGGGTTGGGGTTGGGG; listed as DNA, chemistry not given here)	GRO K^1	–
GRO M: SEQ ID NO:31 ggttttggtt ttggttttgg ttttgg (DNA GGTTTTGGTTTTGGTTTTGGTTTTGG; listed as DNA, chemistry not given here)	GRO M^1	–
GRO N: SEQ ID NO:32 tttcctcctc ctccttctcc tcctcctcc; nucleolin control (DNA TTTCCTCCTCCTCCTTCTCCTCCTCCTCC; listed as DNA, chemistry not given here)	GRO N^2	–
GRO O: SEQ ID NO:33 cctcctcctc cttctcctcc tcctcc; nucleolin control (DNA CCTCCTCCTCCTTCTCCTCCTCCTCC; listed as DNA, chemistry not given here)	GRO O^2	–
GRO P: SEQ ID NO:34 tggggt; nucleolin control	GRO P^2	–
GRO Q: SEQ ID NO:35 gcatgct; nucleolin control (DNA GCATGCT; listed as DNA, chemistry not given here)	GRO Q^2	–
GRO R: SEQ ID NO:36 gcggtttgcg g; nucleolin control (DNA GCGGTTTGCGG; listed as DNA, chemistry not given here)	GRO R^2	–
GRO S: SEQ ID NO:37 tagg; nucleolin control (DNA TAGG; listed as DNA, chemistry not given here)	GRO S^2	–
